In experiment [1] the target is T1, MTHFD2 recombinant human enzyme (Homo sapiens, UniProt P13995).
T1 sequence (P13995 36-350): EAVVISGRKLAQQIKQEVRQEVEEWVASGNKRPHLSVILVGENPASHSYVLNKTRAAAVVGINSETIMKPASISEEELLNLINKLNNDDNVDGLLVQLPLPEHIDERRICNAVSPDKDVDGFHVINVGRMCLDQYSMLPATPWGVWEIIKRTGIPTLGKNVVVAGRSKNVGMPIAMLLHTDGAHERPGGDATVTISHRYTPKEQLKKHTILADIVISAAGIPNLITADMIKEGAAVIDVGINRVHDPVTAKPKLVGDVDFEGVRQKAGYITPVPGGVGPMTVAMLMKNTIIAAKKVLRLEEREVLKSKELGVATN
Nature of the experiment: MTHFD2 inhibition assay (NAD(P)H-Glo luminescence). Conditions: for MTHFD1/MTHFD2 IC50 ratio: selectivity of MTHFD2 inhibition over MTHFD1, band.

Experiment [2] has as its target T2, MTHFD1 recombinant human enzyme (Homo sapiens, UniProt P11586).
T2 sequence (P11586 2-291 limits assumed): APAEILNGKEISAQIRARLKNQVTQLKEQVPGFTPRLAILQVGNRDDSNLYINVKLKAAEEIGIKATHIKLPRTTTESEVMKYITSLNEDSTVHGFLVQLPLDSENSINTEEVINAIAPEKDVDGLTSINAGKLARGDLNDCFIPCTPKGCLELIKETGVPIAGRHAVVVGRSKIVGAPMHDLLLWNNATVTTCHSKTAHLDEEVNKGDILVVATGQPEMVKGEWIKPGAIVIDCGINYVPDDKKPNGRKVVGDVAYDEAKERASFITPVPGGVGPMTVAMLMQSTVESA
Nature of the experiment: MTHFD1 inhibition assay (NAD(P)H-Glo luminescence). As to conditions: MTHFD1 IC50, recombinant human enzyme 200 nM, NADP, band.

With `COC[C@H]1CN(c2cc(C)c3c4c(c(=O)oc3c2C)CN(C(=O)c2cc(N3CCCC3)c(C(=O)NS(=O)(=O)C3(C)CC3)cc2F)CC4)CCN1C` [Example 142, (R)-5-fluoro-4-(8-(3-(methoxymethyl)-4-methylpiperazin-1-yl)-7,10-dimethyl-5-oxo-1,3,4,5-tetrahydro-2H-chromeno[3,4-c]pyridine-3-carbonyl)-N-((1-methylcyclopropyl)sulfonyl)-2-(pyrrolidin-1-yl)benzamide], in experiment [1], the half-maximal inhibitory concentration (IC50) – broadly, the concentration that gives 50% inhibition – lay in the range of 10 to 100 nM and the “MTHFD1/MTHFD2 IC50 ratio” value is “G (^ 3 to 9.0)”. The IC50 in experiment [2] lay in the range of 10 to 100 nM.
Take `COC[C@H]1CN(c2ccc3c4c(c(=O)oc3c2C)CN(C(=O)c2cc(F)c(C(=O)NS(=O)(=O)C3(C)CC3)c(N3CC5CC5C3)c2)CC4)CCN1C` (stereo partly drawn) [Example 26, 2-(3-azabicyclo[3.1.0]hexan-3-yl)-6-fluoro-4-(8-((R)-3-(methoxymethyl)-4-methylpiperazin-1-yl)-7-methyl-5-oxo-1,3,4,5-tetrahydro-2H-chromeno[3,4-c]pyridine-3-carbonyl)-N-((1-methylcyclopropyl)sulfonyl)benzamide]: the IC50 in experiment [1] and in experiment [2] was 1 to 10 nM each time. Further, in experiment [1], the “MTHFD1/MTHFD2 IC50 ratio” value was “F (<3)”.
In the case of `CCOc1c(C(=O)NS(=O)(=O)N2CC3(CCC3)C2)ccc(C(=O)N2CCc3c(c(=O)oc4c(C)c(N5CCN(C)[C@@H](COC)C5)cc(C)c34)C2)c1F` [Example 233], in experiment [1], the IC50 is 10 to 100 nM and the “MTHFD1/MTHFD2 IC50 ratio” value is “F (<3)”. In addition, the IC50 in experiment [2] fell in the range of 10 to 100 nM.
In the case of `COC[C@H]1CN(c2cc(C)c3c4c(c(=O)oc3c2C)CN(C(=O)c2ccc(C(=O)NS(=O)(=O)N3CCC(F)CC3)cc2F)CC4)CCN1C` [Example 204, (R)-3-fluoro-N-((4-fluoropiperidin-1-yl)sulfonyl)-4-(8-(3-(methoxymethyl)-4-methylpiperazin-1-yl)-7,10-dimethyl-5-oxo-1,3,4,5-tetrahydro-2H-chromeno[3,4-c]pyridine-3-carbonyl)benzamide], in experiment [1], the IC50 was 10 to 100 nM and the “MTHFD1/MTHFD2 IC50 ratio” value is reported as “J (>30)”. Besides, the IC50 in experiment [2] lay in the range of 1000 to 5000 nM.
For `COC[C@H]1CN(c2ccc3c4c(c(=O)oc3c2Cl)CN(C(=O)c2ccc(C(=O)NS(=O)(=O)N(C)C(C)C)c(OC3CCCC3)c2F)CC4)CCN1C` [Example 29, (R)-4-(7-chloro-8-(3-(methoxymethyl)-4-methylpiperazin-1-yl)-5-oxo-1,3,4,5-tetrahydro-2H-chromeno[3,4-c]pyridine-3-carbonyl)-2-(cyclopentyloxy)-3-fluoro-N-(N-isopropyl-N-methylsulfamoyl)benzamide], in that order: 10 to 100 nM, “F (<3)” and 10 to 100 nM.
Turning to `COC[C@H]1CN(c2cc(C)c3c4c(c(=O)oc3c2C)CN(C(=O)c2ccc(C(=O)NS(=O)(=O)N(C)C)c(N3CCC[C@H]3C)c2)CC4)CCN1C` [Example 102, N-(N,N-dimethylsulfamoyl)-4-(8-((R)-3-(methoxymethyl)-4-methylpiperazin-1-yl)-7,10-dimethyl-5-oxo-1,3,4,5-tetrahydro-2H-chromeno[3,4-c]pyridine-3-carbonyl)-2-((R)-2-methylpyrrolidin-1-yl)benzamide], the IC50 in experiment [1] and in experiment [2] was 10 to 100 nM each time. Besides, the “MTHFD1/MTHFD2 IC50 ratio” value in experiment [1] is “F (<3)”.
As for `COC[C@H]1CN(c2cc(C)c3c4c(c(=O)oc3c2C)CN(C(=O)c2ccc(C(=O)NS(=O)(=O)N3CCCC3)c(N(C)C3CCC3)c2)CC4)CCN1C` [Example 200, (R)-2-(cyclobutyl(methyl)amino)-4-(8-(3-(methoxymethyl)-4-methylpiperazin-1-yl)-7,10-dimethyl-5-oxo-1,3,4,5-tetrahydro-2H-chromeno[3,4-c]pyridine-3-carbonyl)-N-(pyrrolidin-1-ylsulfonyl)benzamide], in experiment [1], the IC50 is 10 to 100 nM and the “MTHFD1/MTHFD2 IC50 ratio” value was “H (>9.0 to 30)”. In experiment [2], the half-maximal inhibitory concentration (IC50) is 100 to 1000 nM.
`COC[C@H]1CN(c2ccc3c4c(c(=O)oc3c2Cl)CN(C(=O)c2ccc(C(=O)NS(=O)(=O)C3(C)CC3)c(O[C@@H]3C[C@@H]5C[C@@H]5C3)c2F)CC4)CCN1C` [Example 60, 2-(((1R,3r,5S)-bicyclo[3.1.0]hexan-3-yl)oxy)-4-(7-chloro-8-((R)-3-(methoxymethyl)-4-methylpiperazin-1-yl)-5-oxo-1,3,4,5-tetrahydro-2H-chromeno[3,4-c]pyridine-3-carbonyl)-3-fluoro-N-((1-methylcyclopropyl)sulfonyl)benzamide]: in experiment [1], the half-inhibitory concentration (IC50) lay within 1 to 10 nM and the “MTHFD1/MTHFD2 IC50 ratio” value is on record as “F (<3)”. In addition, the 50% inhibitory concentration (IC50) in experiment [2] lay in the range of 1 to 10 nM.
As for `COC[C@H]1CN(c2cc(C)c3c4c(c(=O)oc3c2C)CN(C(=O)c2ccc(C(=O)NS(=O)(=O)C3(C)CC3)c(O[C@H]3C[C@@H]5C[C@@H]5C3)c2F)CC4)CCN1C` [Example 68, 2-(((1R,3s,5S)-bicyclo[3.1.0]hexan-3-yl)oxy)-3-fluoro-4-(8-((R)-3-(methoxymethyl)-4-methylpiperazin-1-yl)-7,10-dimethyl-5-oxo-1,3,4,5-tetrahydro-2H-chromeno[3,4-c]pyridine-3-carbonyl)-N-((1-methylcyclopropyl)sulfonyl)benzamide], the 50% inhibitory concentration (IC50) in experiment [1] and in experiment [2] was 1 to 10 nM throughout. Besides, in experiment [1], the “MTHFD1/MTHFD2 IC50 ratio” value is on record as “F (<3)”.
In the case of `COC[C@H]1CN(c2ccc3c4c(c(=O)oc3c2Cl)CN(C(=O)c2ccc(C(=O)NS(=O)(=O)N(C)C)c(OC3CCC3)c2F)CC4)CCN1C` [Example 52, (R)-4-(7-chloro-8-(3-(methoxymethyl)-4-methylpiperazin-1-yl)-5-oxo-1,3,4,5-tetrahydro-2H-chromeno[3,4-c]pyridine-3-carbonyl)-2-cyclobutoxy-N-(N,N-dimethylsulfamoyl)-3-fluorobenzamide], the 50% inhibitory concentration (IC50) in experiment [1] and in experiment [2] was 1 to 10 nM throughout.
Regarding `COC[C@H]1CN(c2cc(Cl)c3c4c(c(=O)oc3c2C)CN(C(=O)c2cc(N(C)C)c(C(=O)NS(=O)(=O)N3CCCCC35COC5)cc2F)CC4)CCN1C` [Example 271, (R)-N-((2-oxa-5-azaspiro[3.5]nonan-5-yl)sulfonyl)-4-(10-chloro-8-(3-(methoxymethyl)-4-methylpiperazin-1-yl)-7-methyl-5-oxo-1,3,4,5-tetrahydro-2H-chromeno[3,4-c]pyridine-3-carbonyl)-2-(dimethylamino)-5-fluorobenzamide], in experiment [1], the IC50 fell in the range of 10 to 100 nM and the “MTHFD1/MTHFD2 IC50 ratio” value is on record as “H (>9.0 to 30)”. The IC50 in experiment [2] was 1000 to 5000 nM.
For `COC[C@H]1CN(c2cc(C)c3c4c(c(=O)oc3c2C)CN(C(=O)c2cc(OC3CCC3)c(C(=O)NS(=O)(=O)N3CCCC3)c(C(F)(F)F)c2)CC4)CCN1C` [Example 132, (R)-2-cyclobutoxy-4-(8-(3-(methoxymethyl)-4-methylpiperazin-1-yl)-7,10-dimethyl-5-oxo-1,3,4,5-tetrahydro-2H-chromeno[3,4-c]pyridine-3-carbonyl)-N-(pyrrolidin-1-ylsulfonyl)-6-(trifluoromethyl)benzamide], in that order: 10 to 100 nM, “H (>9.0 to 30)” and 100 to 1000 nM.
Consider `CCOc1c(C(=O)NS(=O)(=O)N2CCCCC2)ccc(C(=O)N2CCc3c(c(=O)oc4c(C)c(N5CCN(C)[C@@H](COC)C5)cc(C)c34)C2)c1F` [Example 197, (R)-2-ethoxy-3-fluoro-4-(8-(3-(methoxymethyl)-4-methylpiperazin-1-yl)-7,10-dimethyl-5-oxo-1,3,4,5-tetrahydro-2H-chromeno[3,4-c]pyridine-3-carbonyl)-N-(piperidin-1-ylsulfonyl)benzamide], for which, in experiment [1], the IC50 was in the range of 10 to 100 nM and the “MTHFD1/MTHFD2 IC50 ratio” value was “G (^ 3 to 9.0)”. The IC50 in experiment [2] is 10 to 100 nM.
Take `CCOc1c(C(=O)NS(=O)(=O)N2CC3CCC(C3)C2)ccc(C(=O)N2CCc3c(c(=O)oc4c(C)c(N5CCN(C)[C@@H](COC)C5)cc(C)c34)C2)c1F` [Example 235]: in experiment [1], the concentration for half-maximal inhibition (IC50) is 10 to 100 nM and the “MTHFD1/MTHFD2 IC50 ratio” value was “G (^ 3 to 9.0)”. Besides, the IC50 in experiment [2] lay in the range of 100 to 1000 nM.
Consider `COC[C@H]1CN(c2cc(C)c3c4c(c(=O)oc3c2C)CN(C(=O)c2ccc(C(=O)NS(=O)(=O)C3(C)CC3)c(N3CC5CC5C3)c2F)CC4)CCN1C` (stereo partly drawn) [Example 71, 2-(3-azabicyclo[3.1.0]hexan-3-yl)-3-fluoro-4-(8-((R)-3-(methoxymethyl)-4-methylpiperazin-1-yl)-7,10-dimethyl-5-oxo-1,3,4,5-tetrahydro-2H-chromeno[3,4-c]pyridine-3-carbonyl)-N-((1-methylcyclopropyl)sulfonyl)benzamide], for which the results for the half-inhibitory concentration (IC50) in experiment [1] and in experiment [2] were 1 to 10 nM and 10 to 100 nM, respectively.
As to `CCOc1c(C(=O)NS(=O)(=O)N2C3CCC2CC3)ccc(C(=O)N2CCc3c(c(=O)oc4c(CC)c(N5CCN(C)[C@@H](COC)C5)ccc34)C2)c1F` [Example 215, (R)-N-((7-azabicyclo[2.2.1]heptan-7-yl)sulfonyl)-2-ethoxy-4-(7-ethyl-8-(3-(methoxymethyl)-4-methylpiperazin-1-yl)-5-oxo-1,3,4,5-tetrahydro-2H-chromeno[3,4-c]pyridine-3-carbonyl)-3-fluorobenzamide], in experiment [1], the IC50 was 100 to 1000 nM and the “MTHFD1/MTHFD2 IC50 ratio” value is reported as “F (<3)”. Also, in experiment [2], the IC50 is 10 to 100 nM.

The values are drawn from patent publication US12662489B2 (Sitryx Therapeutics Limited, priority 2023, dated 2026).
